What was measured:
[1] = molecular target: Tyrosine-protein kinase JAK1 (Homo sapiens, UniProt P23458)
LRRK2 = LRRK2 (Homo sapiens, UniProt Q5S007); test: Inhibition of recombinant human GST-tagged LRRK2 (970 to 2527 residues) expressed in baculovirus expression system using LRRKtide as substrate at 0.1 uM incubated for 60 mins by Adapta assay relative to control; conditions: probe LRRKtide
[2] = molecular target: Protein kinase C alpha type (Homo sapiens) (UniProt P17252); test: Inhibition of recombinant human His-tagged full length PKCalpha expressed in Escherichia coli expression system using Ser/Thr 07 as substrate at 0.1 uM incubated for 60 mins by Z'-lyte assay relative to control
[3] = molecular target: Serine/threonine-protein kinase PAK 1 (Homo sapiens) (UniProt Q13153); test: Inhibition of recombinant human GST-tagged full length PAK1 expressed in baculovirus expression system using Ser/Thr 19 as substrate at 0.1 uM incubated for 60 mins by Z'-lyte assay relative to control
Serine/threonine-protein kinase PAK 1 (Homo sapiens), sequence (Q13153 whole entry): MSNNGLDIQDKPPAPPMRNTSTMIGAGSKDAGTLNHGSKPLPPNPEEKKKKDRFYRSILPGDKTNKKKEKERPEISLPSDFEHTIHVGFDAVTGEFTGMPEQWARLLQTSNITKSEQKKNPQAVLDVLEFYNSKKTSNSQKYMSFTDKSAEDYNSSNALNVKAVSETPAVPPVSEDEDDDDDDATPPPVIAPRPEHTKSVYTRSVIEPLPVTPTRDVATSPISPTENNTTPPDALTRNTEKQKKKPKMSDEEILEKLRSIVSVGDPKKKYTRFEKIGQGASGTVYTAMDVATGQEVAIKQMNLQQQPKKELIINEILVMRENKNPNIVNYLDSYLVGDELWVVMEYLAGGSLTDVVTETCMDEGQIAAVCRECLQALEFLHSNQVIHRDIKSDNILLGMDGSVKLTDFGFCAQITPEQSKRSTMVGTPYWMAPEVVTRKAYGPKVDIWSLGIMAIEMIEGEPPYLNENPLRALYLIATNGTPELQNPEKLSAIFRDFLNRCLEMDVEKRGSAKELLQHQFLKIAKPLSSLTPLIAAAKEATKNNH

[4] = molecular target: T1, Mitogen-activated protein kinase 13 (Homo sapiens) (UniProt O15264); test: Inhibition of recombinant human His-tagged full length p38 delta expressed in baculovirus expression system using Ser/Thr 03 as substrate at 0.1 uM incubated for 60 mins by Z'-Lyte assay relative to control
T1 sequence (whole entry): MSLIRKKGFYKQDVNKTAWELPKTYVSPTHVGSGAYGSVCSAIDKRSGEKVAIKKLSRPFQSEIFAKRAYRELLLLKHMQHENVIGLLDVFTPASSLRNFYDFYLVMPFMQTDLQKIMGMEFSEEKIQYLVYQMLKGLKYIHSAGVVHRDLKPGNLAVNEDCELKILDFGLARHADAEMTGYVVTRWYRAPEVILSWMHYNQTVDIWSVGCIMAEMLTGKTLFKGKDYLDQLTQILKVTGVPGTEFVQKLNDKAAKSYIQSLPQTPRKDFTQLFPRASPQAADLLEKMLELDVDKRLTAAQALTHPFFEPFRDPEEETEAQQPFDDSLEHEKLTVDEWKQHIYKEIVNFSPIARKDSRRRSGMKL

[5] = molecular target: T2, Serine/threonine-protein kinase TAO2 (Homo sapiens) (UniProt Q9UL54); test: Inhibition of recombinant human GST-tagged TAO2 (1 to 314 residues) expressed in baculovirus expression system using Ser/Thr 07 as substrate at 0.1 uM incubated for 60 mins by Z'-Lyte assay relative to control
T2 sequence (whole entry): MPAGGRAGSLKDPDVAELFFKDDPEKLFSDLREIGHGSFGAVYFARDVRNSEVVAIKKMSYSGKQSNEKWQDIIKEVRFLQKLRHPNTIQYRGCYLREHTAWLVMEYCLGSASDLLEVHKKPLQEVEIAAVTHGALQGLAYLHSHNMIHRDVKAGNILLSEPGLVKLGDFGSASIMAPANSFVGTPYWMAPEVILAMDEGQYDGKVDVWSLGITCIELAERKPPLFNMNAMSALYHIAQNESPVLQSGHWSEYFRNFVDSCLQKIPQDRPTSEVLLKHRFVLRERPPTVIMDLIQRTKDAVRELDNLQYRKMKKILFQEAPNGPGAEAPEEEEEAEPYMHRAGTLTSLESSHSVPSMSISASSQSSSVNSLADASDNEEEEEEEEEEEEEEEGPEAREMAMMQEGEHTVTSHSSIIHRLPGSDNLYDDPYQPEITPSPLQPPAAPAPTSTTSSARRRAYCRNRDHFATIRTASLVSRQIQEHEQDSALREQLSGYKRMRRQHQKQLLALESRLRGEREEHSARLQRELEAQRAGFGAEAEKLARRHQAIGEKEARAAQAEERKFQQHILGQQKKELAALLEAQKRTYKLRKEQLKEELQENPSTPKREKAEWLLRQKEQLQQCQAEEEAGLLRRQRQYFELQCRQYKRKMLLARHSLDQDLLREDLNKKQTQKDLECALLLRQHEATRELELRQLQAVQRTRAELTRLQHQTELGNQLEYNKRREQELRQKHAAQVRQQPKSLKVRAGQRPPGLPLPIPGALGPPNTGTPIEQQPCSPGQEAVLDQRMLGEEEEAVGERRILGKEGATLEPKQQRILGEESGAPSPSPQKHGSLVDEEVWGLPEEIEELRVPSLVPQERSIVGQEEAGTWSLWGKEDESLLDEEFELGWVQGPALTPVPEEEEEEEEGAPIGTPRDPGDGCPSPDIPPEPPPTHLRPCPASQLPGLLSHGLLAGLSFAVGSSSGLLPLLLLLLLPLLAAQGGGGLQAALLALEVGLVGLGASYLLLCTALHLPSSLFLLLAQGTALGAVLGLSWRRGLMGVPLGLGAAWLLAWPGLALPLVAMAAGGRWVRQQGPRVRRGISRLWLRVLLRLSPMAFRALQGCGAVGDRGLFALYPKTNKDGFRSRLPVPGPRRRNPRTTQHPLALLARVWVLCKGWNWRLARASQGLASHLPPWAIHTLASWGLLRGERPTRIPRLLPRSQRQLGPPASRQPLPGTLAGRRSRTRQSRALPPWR

[6] = molecular target: T3, G protein-coupled receptor kinase 3 (Homo sapiens) (UniProt P35626); test: Inhibition of recombinant human GST-tagged full length GRK3 expressed in baculovirus expression system using Ser/Thr 16 as substrate at 0.1 uM incubated for 60 mins by Z'-Lyte assay relative to control
T3 sequence (whole entry): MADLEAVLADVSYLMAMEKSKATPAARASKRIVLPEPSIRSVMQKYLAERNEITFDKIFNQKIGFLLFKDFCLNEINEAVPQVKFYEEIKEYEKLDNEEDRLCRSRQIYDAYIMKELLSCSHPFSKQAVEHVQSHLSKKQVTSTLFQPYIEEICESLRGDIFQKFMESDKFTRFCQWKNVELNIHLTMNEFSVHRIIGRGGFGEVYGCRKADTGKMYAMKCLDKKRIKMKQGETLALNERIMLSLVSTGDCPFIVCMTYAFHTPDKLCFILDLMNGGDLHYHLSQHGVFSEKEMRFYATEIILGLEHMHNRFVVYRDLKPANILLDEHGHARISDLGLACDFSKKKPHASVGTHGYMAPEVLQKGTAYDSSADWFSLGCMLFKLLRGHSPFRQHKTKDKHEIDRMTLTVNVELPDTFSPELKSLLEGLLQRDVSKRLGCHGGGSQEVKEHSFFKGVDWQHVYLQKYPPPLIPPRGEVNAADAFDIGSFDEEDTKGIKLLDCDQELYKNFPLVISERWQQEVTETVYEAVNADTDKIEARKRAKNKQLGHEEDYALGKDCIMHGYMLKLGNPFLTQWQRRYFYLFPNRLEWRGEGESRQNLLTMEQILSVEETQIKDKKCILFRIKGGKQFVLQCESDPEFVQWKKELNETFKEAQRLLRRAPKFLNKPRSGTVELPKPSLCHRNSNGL

[7] = molecular target: Mitogen-activated protein kinase 14 (Homo sapiens) (UniProt Q16539); test: Inhibition of recombinant human GST-tagged full length p38 alpha expressed in Escherichia coli expression system using Ser/Thr 15 as substrate at 0.1 uM incubated for 60 mins by Z'-Lyte assay relative to control

Tyrosine-protein kinase JAK1, sequence (P23458 whole entry, the tested form may be a part): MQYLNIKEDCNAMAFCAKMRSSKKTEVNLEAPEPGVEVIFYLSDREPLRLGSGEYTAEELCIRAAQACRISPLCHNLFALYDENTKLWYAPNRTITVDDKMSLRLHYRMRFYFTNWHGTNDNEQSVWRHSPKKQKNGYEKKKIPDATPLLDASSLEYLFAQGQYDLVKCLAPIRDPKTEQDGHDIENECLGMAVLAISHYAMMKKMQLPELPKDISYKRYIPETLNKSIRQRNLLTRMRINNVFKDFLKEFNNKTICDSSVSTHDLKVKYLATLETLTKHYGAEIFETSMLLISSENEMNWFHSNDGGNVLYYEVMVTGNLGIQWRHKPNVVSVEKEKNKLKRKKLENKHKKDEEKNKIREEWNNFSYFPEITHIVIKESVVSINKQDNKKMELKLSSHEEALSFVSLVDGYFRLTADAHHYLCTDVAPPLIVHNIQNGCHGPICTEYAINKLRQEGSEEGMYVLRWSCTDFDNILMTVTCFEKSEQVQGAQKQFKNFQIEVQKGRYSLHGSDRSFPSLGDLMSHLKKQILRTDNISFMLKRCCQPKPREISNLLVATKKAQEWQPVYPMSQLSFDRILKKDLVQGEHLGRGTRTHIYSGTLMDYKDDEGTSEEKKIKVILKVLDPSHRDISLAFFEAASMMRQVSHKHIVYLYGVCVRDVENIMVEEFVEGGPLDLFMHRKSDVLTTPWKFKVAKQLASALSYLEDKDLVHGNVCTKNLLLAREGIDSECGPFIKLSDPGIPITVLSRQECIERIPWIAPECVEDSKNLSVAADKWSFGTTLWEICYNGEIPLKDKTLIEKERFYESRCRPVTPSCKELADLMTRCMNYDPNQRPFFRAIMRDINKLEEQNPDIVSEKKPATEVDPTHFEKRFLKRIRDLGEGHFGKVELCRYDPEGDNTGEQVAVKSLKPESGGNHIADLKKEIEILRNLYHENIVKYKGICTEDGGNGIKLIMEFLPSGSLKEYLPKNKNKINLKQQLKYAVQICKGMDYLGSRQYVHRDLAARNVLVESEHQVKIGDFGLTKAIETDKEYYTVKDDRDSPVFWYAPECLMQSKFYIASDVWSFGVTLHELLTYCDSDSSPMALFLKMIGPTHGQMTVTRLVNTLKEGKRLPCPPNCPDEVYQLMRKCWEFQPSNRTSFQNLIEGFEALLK
LRRK2, sequence (Q5S007 whole entry, the tested form may be a part): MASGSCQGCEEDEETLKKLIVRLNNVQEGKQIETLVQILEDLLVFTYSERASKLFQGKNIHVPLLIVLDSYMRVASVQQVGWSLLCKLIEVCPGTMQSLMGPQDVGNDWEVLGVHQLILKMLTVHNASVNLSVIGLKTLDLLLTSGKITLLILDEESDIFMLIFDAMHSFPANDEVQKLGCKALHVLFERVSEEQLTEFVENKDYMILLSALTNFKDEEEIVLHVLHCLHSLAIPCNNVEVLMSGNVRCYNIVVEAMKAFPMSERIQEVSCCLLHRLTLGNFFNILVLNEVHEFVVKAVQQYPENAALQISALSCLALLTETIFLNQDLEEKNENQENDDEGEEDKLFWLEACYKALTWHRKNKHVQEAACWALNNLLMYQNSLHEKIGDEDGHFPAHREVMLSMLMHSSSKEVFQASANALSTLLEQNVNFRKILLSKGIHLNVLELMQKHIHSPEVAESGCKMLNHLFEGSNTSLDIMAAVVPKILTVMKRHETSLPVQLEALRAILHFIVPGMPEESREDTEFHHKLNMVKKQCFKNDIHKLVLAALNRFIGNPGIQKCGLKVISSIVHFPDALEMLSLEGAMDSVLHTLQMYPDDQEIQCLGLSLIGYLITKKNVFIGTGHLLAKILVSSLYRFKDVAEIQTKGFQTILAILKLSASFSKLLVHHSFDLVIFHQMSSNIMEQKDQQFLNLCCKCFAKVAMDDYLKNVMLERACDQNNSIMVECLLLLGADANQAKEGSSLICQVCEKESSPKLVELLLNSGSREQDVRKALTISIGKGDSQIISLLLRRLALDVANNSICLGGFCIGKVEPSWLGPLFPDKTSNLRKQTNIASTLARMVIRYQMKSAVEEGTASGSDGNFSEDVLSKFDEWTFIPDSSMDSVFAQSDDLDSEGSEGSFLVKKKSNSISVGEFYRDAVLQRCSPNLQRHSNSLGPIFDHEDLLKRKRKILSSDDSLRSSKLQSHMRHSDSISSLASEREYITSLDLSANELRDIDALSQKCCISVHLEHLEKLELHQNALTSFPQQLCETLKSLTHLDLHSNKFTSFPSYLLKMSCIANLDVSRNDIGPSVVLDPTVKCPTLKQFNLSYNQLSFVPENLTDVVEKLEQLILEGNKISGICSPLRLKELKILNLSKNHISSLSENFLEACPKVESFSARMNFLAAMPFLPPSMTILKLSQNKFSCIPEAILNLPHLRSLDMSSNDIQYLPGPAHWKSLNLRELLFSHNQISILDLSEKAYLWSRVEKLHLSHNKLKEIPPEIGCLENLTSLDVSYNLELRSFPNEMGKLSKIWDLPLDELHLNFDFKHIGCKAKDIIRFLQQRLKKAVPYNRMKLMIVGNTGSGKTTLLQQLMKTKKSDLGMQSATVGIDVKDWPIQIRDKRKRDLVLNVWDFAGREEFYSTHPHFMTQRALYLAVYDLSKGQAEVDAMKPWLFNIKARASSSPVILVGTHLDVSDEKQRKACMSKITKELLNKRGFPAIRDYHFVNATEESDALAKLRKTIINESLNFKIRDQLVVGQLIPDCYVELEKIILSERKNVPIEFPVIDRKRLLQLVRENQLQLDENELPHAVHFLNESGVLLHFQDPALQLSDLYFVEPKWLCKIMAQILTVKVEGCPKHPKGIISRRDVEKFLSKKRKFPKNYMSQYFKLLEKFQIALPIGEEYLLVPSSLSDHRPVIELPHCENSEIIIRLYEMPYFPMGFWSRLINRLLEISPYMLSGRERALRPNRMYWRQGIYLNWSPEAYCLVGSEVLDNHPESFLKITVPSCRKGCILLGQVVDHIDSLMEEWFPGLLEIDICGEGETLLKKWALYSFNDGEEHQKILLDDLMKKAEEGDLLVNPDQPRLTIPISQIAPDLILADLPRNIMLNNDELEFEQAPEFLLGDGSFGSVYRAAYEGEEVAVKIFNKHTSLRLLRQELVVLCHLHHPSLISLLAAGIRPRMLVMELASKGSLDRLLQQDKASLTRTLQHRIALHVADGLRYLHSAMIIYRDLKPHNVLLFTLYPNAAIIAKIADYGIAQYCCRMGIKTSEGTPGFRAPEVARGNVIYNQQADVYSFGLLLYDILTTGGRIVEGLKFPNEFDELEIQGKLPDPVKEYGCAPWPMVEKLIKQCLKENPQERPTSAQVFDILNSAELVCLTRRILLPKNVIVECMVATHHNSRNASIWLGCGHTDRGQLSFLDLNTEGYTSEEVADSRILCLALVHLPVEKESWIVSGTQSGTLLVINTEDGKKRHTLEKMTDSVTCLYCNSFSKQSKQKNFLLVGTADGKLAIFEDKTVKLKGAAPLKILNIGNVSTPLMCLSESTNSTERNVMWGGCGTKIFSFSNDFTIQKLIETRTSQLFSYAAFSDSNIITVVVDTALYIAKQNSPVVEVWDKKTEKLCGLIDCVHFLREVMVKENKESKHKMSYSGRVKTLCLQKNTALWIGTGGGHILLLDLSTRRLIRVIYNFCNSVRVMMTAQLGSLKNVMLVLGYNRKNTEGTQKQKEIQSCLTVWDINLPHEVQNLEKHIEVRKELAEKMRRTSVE

Cn1cc(NC(=O)c2cnn3cccnc23)c(-c2cc(Cl)ccc2OC(F)F)n1
IC50 [1]: 1.7 nM | inhibition at 1 h, 0.1 µM (LRRK2): 61% | inhibition [2]: 11% | inhibition [3]: 2% | inhibition [4]: 0% | inhibition [5]: 4% | inhibition [6]: 3% | inhibition [7]: 7%

O=C(Nc1c[nH]nc1-c1cc(Cl)ccc1OC(F)F)c1cnn2cccnc12
IC50 [1]: 1.2 nM | inhibition at 1 h, 0.1 µM (LRRK2): 87% | inhibition [2]: 12% | inhibition [3]: 12% | inhibition [4]: 10% | inhibition [5]: 1% | inhibition [6]: -1% | inhibition [7]: -4%

O=C(Nc1c[nH]nc1-c1cc2ccccc2cc1OC(F)F)c1cnn2cccnc12
IC50 [1]: 2.2 nM | inhibition at 1 h, 0.1 µM (LRRK2): 31% | inhibition [2]: 1% | inhibition [3]: -7% | inhibition [4]: 6% | inhibition [5]: 8% | inhibition [6]: 1% | inhibition [7]: 2%
